What all share (assay): DTP human tumour cell line panel, 48 h
Assay [1] relates to MALME-3M melanoma.
Assay [2] deals with HCT-116 colon.
Assay [3] concerns CCRF-CEM leukemia.
Assay [4] concerns OVCAR-4 ovarian.
Assay [5] relates to SNB-19 CNS.
The subject of assay [6] is SNB-75 CNS.
Assay [7] has as its system HCT-15 colon.
The test system of assay [8] is OVCAR-3 ovarian.
Assay [9] concerns UO-31 renal.
The subject of assay [10] is HL-60(TB) leukemia.
Assay [11] relates to MCF7 breast.
Assay [12] concerns ACHN renal.
Assay [13] deals with EKVX NSCLC.
Assay [14] relates to U251 CNS.

Molecules are shown by their SMILES.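 Exposure lasted 48 hours, with cells grown in 96-well plates and compounds tested at five concentrations. TGI: total growth inhibition.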 Bounds are passed on as bounds.

For `COC(=O)C1=C(O)C(C(=O)OC)[C@]2(O)[C@H](C(=O)OC)[C@H]1C[C@@H](c1ccc(O)cc1)[C@H]2C(=O)OC` (stereo partly specified), the TGI (commonly the concentration at which net growth stops) was greater than 100 µM in assay [1]; 94.3 µM in assay [2]; greater than 100 µM in [3]; greater than 100 µM in [4]; greater than 100 µM in assay [5]; 81.5 µM in assay [6]. Besides, the TGI in [7] is greater than 100 µM; in [8], 35.6 µM; in [9], greater than 100 µM; in assay [10], 95.1 µM; in assay [11], greater than 100 µM; in [12], greater than 100 µM. For the same compound, the TGI is greater than 100 µM in assay [13] and 50.1 µM in [14].

Consider `Cc1cc2c(c(C=Nc3ccc(N(C)C)cc3)c1)OC1(C=C2)Oc2ccccc2C(=O)N1C` (stereo unspecified), for which the TGI in assay [1] was 33.4 µM; in assay [2], 21.6 µM; in [3], 17.5 µM; in assay [4], 25.1 µM; in assay [5], 24.5 µM; in [6], 39.5 µM. The TGI is 27.6 µM in [7]; greater than 50.1 µM in assay [8]; 23.2 µM in assay [9]; 19.9 µM in assay [10]; 37.9 µM in [11]; 25.5 µM in assay [12]. Further, the TGI in [13] came out at 27.1 µM; in assay [14], 28.7 µM.

`CC(C)(C)c1cc(C(C)(C)C)c(P=C(Cl)Cl)c(C(C)(C)C)c1` (stereo unspecified): the TGI in assay [1], in assay [2], in assay [3], in assay [4], in [5] and in assay [6] was greater than 100 µM throughout. Further, the concentration for total growth inhibition (TGI) in assay [7], in [8], in assay [9], in [10], in [11] and in assay [12] was greater than 100 µM each time. In addition, the TGI in assay [13] and in assay [14] was greater than 100 µM throughout.

Take `Cc1nc2ccc(S(=O)(=O)Nc3ccccn3)cc2c(=O)n1NS(=O)(=O)c1ccccn1`: the TGI in assay [1], in assay [2], in assay [3], in assay [4], in [5] and in [6] was greater than 100 µM in each case. In addition, the TGI in assay [7], in [8], in assay [9], in assay [10], in assay [11] and in assay [12] was greater than 100 µM in each case. For the same compound, the TGI in assay [13] and in assay [14] was greater than 100 µM throughout.

Consider `Nc1c(O)c2c(c(O)c1Cl)C(=O)C=CC2=O`, for which the total growth inhibition concentration (TGI) in assay [1] was 0.894 µM; in [2], 7.09 µM; in assay [3], greater than 100 µM; in assay [4], 16.2 µM; in assay [5] it was 14.2 µM; in assay [6], 12.6 µM. In addition, the concentration for total growth inhibition (TGI) in assay [7] was greater than 36.8 µM; in assay [8], 6.02 µM; in [9] it was 24.5 µM; in [10] it was 6.13 µM; in [11], 3.51 µM; in assay [12] it was 18.8 µM. Moreover, the TGI in [13] amounted to 24.4 µM; in [14], 15.8 µM.

As for `CCOC(=O)CCN1C(=O)c2ccc(NC(=O)C(=O)O)cc2S1(=O)=O`, the TGI in assay [1], in assay [2], in assay [3], in [4], in assay [5] and in assay [6] was greater than 100 µM in each case. Besides, the TGI in assay [7], in assay [8], in assay [9], in assay [10], in assay [11] and in assay [12] was greater than 100 µM throughout. The TGI in assay [13] and in assay [14] was greater than 100 µM each time.

As to `COc1ccc(/C=C/C(=N/NC(=O)N/N=C(/C=C/c2ccc(OC)cc2)C(C)C)C(C)C)cc1`, the TGI in [1], in [2], in [3], in [4], in assay [5] and in assay [6] was greater than 100 µM in each case. The TGI in assay [7], in assay [8], in assay [9], in assay [10], in [11] and in assay [12] was greater than 100 µM each time. Also, the TGI in assay [13] and in [14] was greater than 100 µM throughout.

Consider `Cc1cccc(/C=N/NC(=S)NC2CCCCC2)n1`, for which the TGI in [1] is greater than 86.4 µM; in assay [2] it was 19.4 µM; in assay [3] it was greater than 21.5 µM; in assay [4] it was greater than 100 µM; in assay [5], greater than 100 µM; in assay [6] it was greater than 100 µM. Also, the TGI is greater than 100 µM in [7]; greater than 29.3 µM in [8]; greater than 89.5 µM in [9]; greater than 44.5 µM in assay [10]; greater than 100 µM in assay [11]; greater than 85.2 µM in assay [12]. Also, the TGI in assay [13] is greater than 100 µM; in assay [14], greater than 87.8 µM.

As for `CN(C)Cc1cc(N=Nc2c(Cl)cccc2Cl)ccc1O`, the TGI in assay [1], in [2], in assay [3], in [4], in assay [5] and in [6] was greater than 100 µM each time. The TGI in [7], in [8], in assay [9], in assay [10], in assay [11] and in assay [12] was greater than 100 µM throughout. The TGI in assay [13] and in assay [14] was greater than 100 µM throughout.

For the origin of these results see PubChem BioAssay (NCI).
